Data reported in patent EP0462066A1, “Amorphous gemfibrozil” (WARNER-LAMBERT COMPANY, priority 1990, dated 1991).
In brackets after ≈: the same amount, converted by molar mass.

Experiment: Dissolution / solubility in water over time, crystalline material compared with solid dispersion
Type: physicochemical

solubility at 1 h (Time: One hour): 0.0147 mg/mL (≈ 58.8 µM) | solubility at 20 h (Time: Twenty Hours): 0.0213 mg/mL (≈ 85.1 µM) | solubility at 24 h (Time: Twenty-four Hours): 0.0224 mg/mL (≈ 89.5 µM) | solubility at 2 h (Time: Two Hours): 0.0184 mg/mL (≈ 73.6 µM)
Compound: Cc1ccc(C)c(OCCCC(C)(C)C(=O)O)c1 [Crystalline, 5-(2,5-dimethylphenoxy)-2,2-dimethylpentanoic acid]
